Experimental data from patent publication US20050228016A1, “TETRAHYDROQUINOLINES FOR MODULATING THE EXPRESSION OF EXOGENOUS GENES VIA AN ECDYSONE RECEPTOR COMPLEX” (priority 2002, published 2005).

Experiments:
Gal4DBD/AaEcR (DEF) = biological target: T1, Gal4DBD/AaEcR (DEF) (Aedes aegypti, UniProt P49880); experiment: cell-based; format: cell-based; conditions: for Fold Induction Average, AA_3T3V1 Assay 33 μM: 3T3 cells, 48 h, average of two wells
T1 construct: The wildtype D, E, and F domains from mosquito Aedes aegypti EcR; expressed in transfected cells; host or cells: 3T3 cells
Experimental: 3T3 cells were trypsinized and plated at 2.5×10^3 cells/well on a 96-well plate. After incubation for 24 h at 37° C. under 5% CO2, cells were transfected with the Gal4DBD/AaEcR (DEF) gene expression cassette and the reporter plasmid, pFRLuc, containing a 5× GAL4 response element and the firefly luciferase gene in serum free media using Superfect (Qiagen). After transfection for 4 h at 37° C., the cells were treated with ligand in serum media. […] Single dose testing was performed at 33 μM.

[1] = biological target: T2, Bombyx mori EcR (VP16-BmEcR, CVBE) (Bombyx mori, UniProt P49881); experiment: Z3 assay (HEK-293 clone Z3 with CVBE and 6x EcRE LacZ, β-galactosidase reporter); format: cell-based; conditions: 48 h, average of two wells
T2 construct: expressed in transfected cells
T2 sequence (P49881 86-606): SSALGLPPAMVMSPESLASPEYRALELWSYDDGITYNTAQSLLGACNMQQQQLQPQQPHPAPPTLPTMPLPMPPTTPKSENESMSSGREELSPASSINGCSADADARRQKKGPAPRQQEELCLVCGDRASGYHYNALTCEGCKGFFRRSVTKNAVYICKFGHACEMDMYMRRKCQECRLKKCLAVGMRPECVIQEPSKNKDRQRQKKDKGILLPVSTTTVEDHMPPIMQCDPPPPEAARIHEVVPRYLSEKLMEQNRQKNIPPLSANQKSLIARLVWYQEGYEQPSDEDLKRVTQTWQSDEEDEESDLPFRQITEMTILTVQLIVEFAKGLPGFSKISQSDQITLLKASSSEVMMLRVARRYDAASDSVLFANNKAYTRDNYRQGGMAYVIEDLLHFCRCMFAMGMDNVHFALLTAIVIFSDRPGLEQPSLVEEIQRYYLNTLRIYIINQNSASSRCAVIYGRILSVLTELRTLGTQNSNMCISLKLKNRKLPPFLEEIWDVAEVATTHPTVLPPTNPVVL
Source text: Dr. F. Gage provided a population of stably transformed cells containing CVBE and 6× EcRE as described in (Suhr et. al. 1998). Human 293 kidney cells, also referred to as HEK-293 cells, were sequentially infected with retroviral vectors encoding first the switch construct CVBE, and subsequently the reporter construct 6× EcRE Lac Z. The switch construct contained the coding sequence for amino acids 26-546 from Bombyx nori EcR (BE) (Iatrou) inserted in frame and downstream of the VP16 transactivation domain (VBE). A synthetic ATG start codon was placed under the control of cytomegalovirus (CVBE) immediate early promoter and flanked by long terminal repeats (LTR). The reporter-construct contained six copies of the ecdysone response element (EcRE) binding site placed upstream of LacZ and flanked on both sides with LTR sequences (6× EcRE).
Dilution cloning was used to isolate individual clones. Clones were selected using 450 μg/ml G418 and 100 ng/ml puromycin. Individual clones were evaluated based on their response in the presence and absence of test ligands.
Human 293 kidney cells stably transformed with CVBE and 6× EcRE lack were maintained in Minimum Essential Medium (Mediates, 10-010-CV) containing 10%.FBS (Life Technologies, 26140-087),[…] G418 (Mediates, 30-234-CR), and […] (Sigma, P-7255), at 37° C. in an atmosphere containing 5% CO2 and were subculture when they reached 75% confluence.
Z3 cells were seeded into 96-well tissue culture plates at a concentration of 2.5×10^3 cells per well and incubated at 37° C. in 5% CO2 for twenty-four hours. Stock solutions of ligands were prepared in DMSO. Ligand stock solutions were diluted 100.fold in media and 50 μL of this diluted ligand solution (33 μM) was added to cells.
Reporter gene expression was evaluated 48 hours after treatment of cells, β-galactosidase activity was measured using Gal Screen™ bioluminescent reporter gene assay system from Tropix (GSY1000).
Flanking both constructs are long terminal repeats, G418 and puromycin are selectable markers, CMV is the cytomegalovirus promoter, VBE is coding sequence for amino acids 26-546 from Bombyx mori EcR inserted downstream of the VP16 transactivation domain, 6× EcRE is six copies of the ecdysone response element, lacZ encodes for the reporter enzyme β-galactosidase.

T1 sequence (P28704 286-520 A311G/G315S/G445S/I449V): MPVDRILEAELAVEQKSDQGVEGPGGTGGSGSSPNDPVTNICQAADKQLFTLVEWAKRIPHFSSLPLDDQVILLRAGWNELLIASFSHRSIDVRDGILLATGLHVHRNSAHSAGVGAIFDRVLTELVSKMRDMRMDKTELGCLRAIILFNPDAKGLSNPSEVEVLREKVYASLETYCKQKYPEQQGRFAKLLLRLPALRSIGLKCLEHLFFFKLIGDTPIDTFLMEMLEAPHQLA
T1 sequence (P49880 405-776): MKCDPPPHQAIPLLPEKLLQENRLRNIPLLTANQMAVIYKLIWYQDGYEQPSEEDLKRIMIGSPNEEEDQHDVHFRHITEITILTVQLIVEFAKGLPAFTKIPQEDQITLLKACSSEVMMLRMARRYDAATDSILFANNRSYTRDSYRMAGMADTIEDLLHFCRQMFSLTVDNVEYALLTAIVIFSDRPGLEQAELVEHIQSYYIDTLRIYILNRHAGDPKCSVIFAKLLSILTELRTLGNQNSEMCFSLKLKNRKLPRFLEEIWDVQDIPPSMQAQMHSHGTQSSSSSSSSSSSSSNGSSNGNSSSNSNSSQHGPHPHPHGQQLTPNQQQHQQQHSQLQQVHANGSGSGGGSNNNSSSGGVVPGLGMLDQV

SMILES | Fold Induction Average, AA_3T3V1 Assay 33 μM (Gal4DBD/AaEcR (DEF)) [fold] | Fold Induction Average, Z3V1 Assay 33 μM [1] [fold] | fold induction at 33 µM (Gal4DBD/AaEcR (DEF); NIH3T3, read-out: Fold Induction Average, AA_3T3V1 Assay 33 μM)
Cc1cccc(C(=O)N2c3ccc(F)cc3[C@@H](Nc3ccc(F)cc3)C[C@@H]2C)c1 (relative stereo) [Compound I-90] | 433 | 33 | 
COc1ccc(C(=O)N2c3ccc(F)cc3[C@@H](Nc3ccc(F)cc3)C[C@@H]2C)cc1 (relative stereo) [Compound I-93] | 378 | 87 | 
COc1ccc(NC2CC(C)N(C(=O)c3ccc(C)cc3)c3ccccc32)cc1 (mixture of isomers) [Compound I-47] | 81 | 2 | 
COc1cccc(C(=O)N(c2ccccc2)C2CC(C)N(C(C)=O)c3ccccc32)c1 (centres unmarked) [Compound I-142] | 1 | 1 | 
CCOC(=O)C(=O)N1c2ccccc2C(Nc2ccccc2)CC1C (centres unmarked) [Compound I-171] | 1 | 1 | 
Cc1ccc(C(=O)N2c3ccccc3C(Nc3ccccc3)CC2C)cc1 (centres unmarked) [Compound I-96] | 121 | 1 | 
Cc1ccc(N[C@H]2C[C@H](C)N(C(=O)c3cccc(C)c3)c3ccc(C)cc32)cc1 (relative stereo) [Compound I-85] | 3 | 1 | 
COc1ccc(C(=O)N2c3ccccc3C(Nc3ccccc3)CC2C)cc1 (centres unmarked) [Compound I-95] | 11 | 1 | 
C[C@H]1C[C@H](Nc2ccccc2)c2ccccc2N1C(=O)c1ccccc1 (relative stereo) [Compound I-67] | 20 | 1 | 
CCc1ccc(C(=O)N2c3ccc(C)cc3[C@@H](Nc3ccc(C)cc3)C[C@@H]2C)cc1 (relative stereo) [Compound I-64] | 681 | 1 | 
COc1ccc(C(=O)N2c3ccc(C)cc3[C@@H](Nc3ccc(C)cc3)C[C@@H]2C)cc1 (relative stereo) [Compound I-88] | 213 | 1 | 
COc1cccc(C(=O)N2c3ccccc3[C@@H](Nc3ccccc3)C[C@@H]2C)c1 (relative stereo) [Compound I-81] | 9 | 1 | 
COc1cccc(C(=O)N2c3ccc(F)cc3[C@@H](Nc3ccc(F)cc3)C[C@@H]2C)c1 (relative stereo) [Compound I-91] | 542 | 107 | 
Cc1ccc(C(=O)N2c3ccc(F)cc3C(Nc3ccc(F)cc3)CC2C)cc1 (centres unmarked) [Compound I-102] | 601 | 3 | 
COc1cccc(NC2CC(C)N(C(=O)c3ccccc3)c3ccccc32)c1 (centres unmarked) [Compound I-137] | 64 | 1 | 
CC1CC(Nc2ccccc2)c2ccccc2N1C(=O)Cc1cccc2ccccc12 (centres unmarked) [Compound I-169] |  | 1 | 
CCCCCCC(=O)N1c2ccccc2[C@@H](Nc2ccccc2)C[C@@H]1C (relative stereo) [Compound I-1] |  | 10 | 
CC1CC(Nc2ccccc2)c2ccccc2N1C(=O)Nc1ccc(Cl)cc1 (centres unmarked) [Compound I-212] | 367 |  | 
CCOC(=O)C(=O)N1c2ccccc2C(N(C(=O)C(=O)OCC)c2ccccc2)CC1C (centres unmarked) [Compound I-145] | 47 |  | 
Cc1ccc(NC(=O)N2c3ccccc3[C@@H](Nc3ccccc3)C[C@H]2C)cc1 (relative stereo) [Compound I-214, cis-2-methyl-1-(4-methylphenylaminocarbonyl)-4-(4-phenylamino)-1,2,3,4-tetrahydroquinoline] |  |  | 820
C[C@H]1C[C@@H](Nc2ccccc2)c2ccccc2N1C(=O)c1ccc(C(F)(F)F)c(F)c1 (relative stereo) [Compound I-20] | 47 |  | 

SMILES | Fold Induction Average, AA_3T3V1 Assay 33 μM (Gal4DBD/AaEcR (DEF)) [fold] | Fold Induction Average, Z3V1 Assay 33 μM [1] [fold] | fold induction at 33 µM (Gal4DBD/AaEcR (DEF); NIH3T3, read-out: Fold Induction Average, AA_3T3V1 Assay 33 μM)
CCCCCC(=O)N(c1ccccc1)C1CC(C)N(C(=O)c2cccc(OC)c2)c2ccccc21 (centres unmarked) [Compound I-133] | 1 |  | 
Cc1ccc(NC2CC(C)N(C(=O)c3ccccc3C)c3ccc(C)cc32)cc1 (centres unmarked) [Compound I-52] | 19 |  | 
CC1CC(Nc2ccccc2)c2ccccc2N1C(=O)c1cccs1 (centres unmarked) [Compound I-122] | 5 |  | 
COC(=O)c1ccc(C(=O)N2c3ccccc3[C@H](Nc3ccccc3)C[C@@H]2C)cc1 (relative stereo) [Compound I-30] | 9 |  | 
Cc1cccc(C(=O)N2c3ccccc3C(N(C(=O)c3cccc(C)c3)c3ccccc3)CC2C)c1 (centres unmarked) [Compound I-164] | 1 |  | 
CCCc1ccc(C(=O)N2c3c(C)cccc3C(Nc3ccccc3C)CC2C)cc1 (centres unmarked) [Compound I-157] | 1 |  | 
CC1CC(Nc2ccccc2)c2ccccc2N1C(=O)c1cccc(F)c1 (centres unmarked) [Compound I-199] | 147 |  | 
CCCC(=O)N1c2ccccc2C(N(C(=O)c2cccc(OC)c2)c2ccccc2)CC1C (centres unmarked) [Compound I-160] |  | 1 | 
CCCCCC(=O)N1c2ccccc2C(N(C(=O)c2ccccc2F)c2ccccc2)CC1C (centres unmarked) [Compound I-186] | 1 |  | 
CC(=O)N1c2ccccc2C(N(C(=O)c2ccc(F)cc2)c2ccccc2)CC1C (centres unmarked) [Compound I-128] | 1 |  | 
Cc1ccc(C(=O)N2c3c(C)cccc3C(Nc3ccccc3C)CC2C)cc1 (centres unmarked) [Compound I-187] | 1 |  | 
CC1CC(Nc2ccccc2)c2ccccc2N1C(=O)Cc1ccccc1 (centres unmarked) [Compound I-130] | 1 |  | 
CC(=O)N1c2ccccc2C(N(C(=O)c2ccc(C)cc2)c2ccccc2)CC1C (centres unmarked) [Compound I-132] | 1 |  | 
CCCCCCCC(=O)N1c2ccccc2[C@@H](Nc2ccccc2)C[C@@H]1C (relative stereo) [Compound I-2] | 49 |  | 
Cc1ccc(NC2CC(C)N(C(=O)Nc3ccccc3)c3ccc(C)cc32)cc1 (centres unmarked) [Compound I-216] | 2 |  | 
Cc1ccc(NC(=O)N2c3ccc(C)cc3[C@@H](Nc3ccc(C)cc3)C[C@@H]2C)cc1 (relative stereo) [Compound I-219] | 3 |  | 
CC1CC(Nc2ccccc2)c2ccccc2N1C(=O)c1ccco1 (centres unmarked) [Compound I-139] | 1 |  | 
CC1CC(Nc2ccc(F)cc2)c2cc(F)ccc2N1C(=O)c1cccc(F)c1 (centres unmarked) [Compound I-207] | 108 |  | 
Cc1cccc(NC(=O)N2c3ccc(F)cc3[C@@H](Nc3ccc(F)cc3)C[C@@H]2C)c1 (relative stereo) [Compound I-225] | 1561 |  | 
CC1CC(Nc2ccccc2)c2ccccc2N1C(=O)CN1C(=O)CCC1=O (centres unmarked) [Compound I-167] | 1 |  | 
